Test results: PMC3763849 (ACS medicinal chemistry letters, 2013)
Entries after “also recorded” stand apart in the source; their conditions may differ.

Key:
PBM cells = test: Cellular pharmacology in PBM cells: intracellular nucleoside triphosphate levels; type: in vitro ADME, human
HBV = test: Antiviral activity against HBV in the HepAD38 cell system; type: cell-based
[1] = test system: five tested cell lines (PBM, HepG2, Huh7, Vero, CEM); test: Cytotoxicity across the five tested cell systems; type: cell-based
HIV-1LAI = test: HIV-1 susceptibility assay in human PBM cells infected with HIV-1LAI; type: cell-based; settings: for fold greater potency versus HIV-1 compared to parent nucleoside: phosphoramidate versus parent nucleoside

SMILES	formation of dioxolane-A triphosphate (PBM cells)	fold greater potency versus HIV-1 compared to parent nucleoside (HIV-1LAI)	other results
CCOC(=O)CCc1ccccc1OP(=O)(N[C@@H](C)C(=O)OCC)OC[C@@H]1OC[C@H](n2cnc3c(NC4CC4)ncnc32)O1 (stereo partly drawn) [Compound 23]	found to form the dioxolane-A triphosphate	–	–
Nc1ncnc2c1ncn2[C@H]1CO[C@@H](CO)O1 [Compound 6, (−)-β-D-(2R,4R)-6-amino dioxolane adenosine]	found to form the dioxolane-A triphosphate	–	–
Nc1nc(N)c2ncn([C@H]3CO[C@@H](CO)O3)c2n1 [DAPD, Amdoxovir, reference compound]	–	–	activity versus HBV (HBV): low micromolar
OC[C@@H]1OC[C@H](n2cnc3c(NC4CC4)ncnc32)O1 [Compound 8]	–	–	activity versus HBV (HBV): essentially not active; cytotoxicity in the five tested cell lines [1]: did not display any cytotoxicity; activity versus HIV (HIV-1LAI): essentially not active
CCOC(=O)[C@H](C)NP(=O)(OC[C@@H]1OC[C@H](n2cnc3c(N)ncnc32)O1)Oc1ccccc1 (stereo partly drawn) [Compound 17]	found to form the dioxolane-A triphosphate; also recorded: highest levels of dioxolane-A triphosphate	up to 3,600 fold	–
CCOC(=O)CCc1ccccc1OP(=O)(N[C@@H](C)C(=O)OCC)OC[C@@H]1OC[C@H](n2cnc3c(OC)ncnc32)O1 (stereo partly drawn) [Compound 20]	–	up to 3,600 fold	–
CCOC(=O)[C@H](C)NP(=O)(OC[C@@H]1OC[C@H](n2cnc3c(NC4CC4)ncnc32)O1)Oc1ccccc1 (stereo partly drawn) [Compound 22]	found to form the dioxolane-A triphosphate	up to 3,600 fold	cytotoxicity in the five tested cell lines [1]: no observed cytotoxicity
CCOC(=O)CCc1ccccc1OP(=O)(N[C@@H](C)C(=O)OCC)OC[C@@H]1OC[C@H](n2cnc3c(N)ncnc32)O1 (stereo partly drawn) [Compound 18]	found to form the dioxolane-A triphosphate; also recorded: highest levels of dioxolane-A triphosphate	up to 3,600 fold	–
CCOC(=O)[C@H](C)NP(=O)(OC[C@@H]1OC[C@H](n2cnc3c(OC)ncnc32)O1)Oc1ccccc1 (stereo partly drawn) [Compound 19]	–	up to 3,600 fold	–
